Consider 1 molecule from BindingDB's records for PubMed 36250680 (University of Pisa, 2022).

What is called Ki is the equilibrium dissociation constant of an inhibitor or competing ligand from its target.

This test deals with Macrophage metalloelastase (Homo sapiens, UniProt P39900). Description: Inhibition of MMP12 (unknown origin).

Structures are written as SMILES.

Sequence of Macrophage metalloelastase (P39900 whole entry): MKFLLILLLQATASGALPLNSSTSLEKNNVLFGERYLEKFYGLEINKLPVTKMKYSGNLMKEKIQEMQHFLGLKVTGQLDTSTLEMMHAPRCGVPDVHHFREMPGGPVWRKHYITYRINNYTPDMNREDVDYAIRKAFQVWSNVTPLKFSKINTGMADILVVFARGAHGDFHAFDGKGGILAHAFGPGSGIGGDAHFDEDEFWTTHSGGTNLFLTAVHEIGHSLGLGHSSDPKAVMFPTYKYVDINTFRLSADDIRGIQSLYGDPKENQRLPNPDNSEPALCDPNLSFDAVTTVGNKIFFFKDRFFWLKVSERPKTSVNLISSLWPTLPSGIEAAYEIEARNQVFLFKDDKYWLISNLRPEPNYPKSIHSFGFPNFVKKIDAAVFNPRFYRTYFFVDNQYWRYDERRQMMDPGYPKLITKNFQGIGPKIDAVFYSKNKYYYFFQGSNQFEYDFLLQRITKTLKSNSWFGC

The molecule `Oc1cccc(O)c1O` returned a Ki of 2030 nM.
